# Test results taken from patent US8415469B2, “Compounds and methods for kinase modulation, and indications therefor” (Plexxikon Inc., priority 2005, dated 2013).
# Key:
# Format in all cases: biochemical
# Fms = biological target: T1, Fms (Homo sapiens, UniProt P07333); assay: AlphaScreen kinase assay, Fms; details: read-out: IC50, activity toward kinase Fms
# T1 construct: purchased Upstate Biotechnology
# Kit = biological target: T2, Kit (Homo sapiens, UniProt P10721); assay: AlphaScreen kinase assay, Kit; details: read-out: IC50, activity toward kinase Kit
# T2 construct: P1332.N6 BI PTP KIT M552-K948-X COD; His6 (N); made in house; host or cells: E. coli (PTP1B co-expressed)
# T2 sequence (P10721 with tags, fused parts or gaps): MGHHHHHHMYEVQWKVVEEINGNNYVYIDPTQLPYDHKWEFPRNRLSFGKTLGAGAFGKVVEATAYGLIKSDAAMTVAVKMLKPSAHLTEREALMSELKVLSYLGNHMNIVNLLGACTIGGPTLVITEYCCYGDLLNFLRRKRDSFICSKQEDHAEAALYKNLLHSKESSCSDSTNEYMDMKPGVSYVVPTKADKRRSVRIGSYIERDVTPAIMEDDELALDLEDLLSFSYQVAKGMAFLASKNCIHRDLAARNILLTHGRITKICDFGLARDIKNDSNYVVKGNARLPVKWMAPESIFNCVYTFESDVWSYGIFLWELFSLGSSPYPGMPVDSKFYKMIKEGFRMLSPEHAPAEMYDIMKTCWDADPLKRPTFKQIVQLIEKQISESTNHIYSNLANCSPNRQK
# B-Raf V600E = biological target: T3, B-Raf V600E (Homo sapiens, UniProt P15056, V600E); assay: AlphaScreen kinase assay, B-Raf V600E; details: read-out: IC50, activity toward kinase B-Raf V600E
# T3 construct: P4254. pFastBacBD-CDC37 BRAF D437-K722-X, V600E; His6 with pFastBac HT leader (TEV site) (N); made in house; host or cells: Sf9 (baculovirus; chaperone CDC37 co-expressed)
# T3 sequence (P15056 with tags, fused parts or gaps V600E): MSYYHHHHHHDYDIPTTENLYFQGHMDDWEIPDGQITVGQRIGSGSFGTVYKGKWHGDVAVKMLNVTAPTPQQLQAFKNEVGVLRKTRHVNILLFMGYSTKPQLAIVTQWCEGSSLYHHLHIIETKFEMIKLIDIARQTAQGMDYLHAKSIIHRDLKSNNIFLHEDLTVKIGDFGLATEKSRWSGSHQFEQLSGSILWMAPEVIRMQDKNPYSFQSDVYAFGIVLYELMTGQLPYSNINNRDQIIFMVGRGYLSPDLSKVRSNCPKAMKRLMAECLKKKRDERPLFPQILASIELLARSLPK
# Flt1 = biological target: T4, Flt1 (Homo sapiens, UniProt P17948); assay: AlphaScreen kinase assay, Flt1; details: read-out: IC50, activity toward kinase Flt1
# T4 construct: P1826.pETN6 BI-PTP FLT1 M799-D1165-X WT; His6 (N); made in house; host or cells: E. coli (PTP1B co-expressed)
# T4 sequence (P17948 with tags, fused parts or gaps): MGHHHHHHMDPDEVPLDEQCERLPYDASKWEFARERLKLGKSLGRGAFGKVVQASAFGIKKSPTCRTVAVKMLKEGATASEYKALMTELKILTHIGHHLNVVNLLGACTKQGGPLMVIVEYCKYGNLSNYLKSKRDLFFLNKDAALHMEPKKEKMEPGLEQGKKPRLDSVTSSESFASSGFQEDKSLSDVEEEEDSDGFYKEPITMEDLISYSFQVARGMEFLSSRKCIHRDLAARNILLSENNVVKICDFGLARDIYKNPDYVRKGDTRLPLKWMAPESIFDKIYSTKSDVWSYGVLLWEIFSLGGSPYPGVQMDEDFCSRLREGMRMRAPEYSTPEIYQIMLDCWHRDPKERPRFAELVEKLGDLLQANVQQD
# FGFR1 = biological target: T5, FGFR1 (Homo sapiens, UniProt P11362, C488A/C584S); assay: AlphaScreen kinase assay, FGFR1; details: read-out: IC50, activity toward kinase FGFR
# T5 construct: P1351.pET N6 BI-PTP FGFR A458-E765-X C488A, C584S; made in house; host or cells: E. coli (PTP1B co-expressed)
# T5 sequence (P11362 458-765 C488A/C584S): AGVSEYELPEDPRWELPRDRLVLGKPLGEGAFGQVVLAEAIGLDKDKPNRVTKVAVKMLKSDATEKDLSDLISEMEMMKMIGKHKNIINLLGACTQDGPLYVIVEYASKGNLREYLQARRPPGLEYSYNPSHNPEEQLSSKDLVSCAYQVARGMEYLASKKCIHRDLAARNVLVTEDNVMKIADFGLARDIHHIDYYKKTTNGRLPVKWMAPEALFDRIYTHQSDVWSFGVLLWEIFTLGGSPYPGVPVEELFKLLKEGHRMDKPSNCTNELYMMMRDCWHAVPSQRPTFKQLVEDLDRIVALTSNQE
# B-Raf = biological target: T6, B-Raf (Homo sapiens, UniProt P15056); assay: AlphaScreen kinase assay, B-Raf; details: read-out: IC50, activity toward kinase B-Raf
# T6 construct: purchased Upstate Biotechnology
# T6 sequence (P15056 whole entry): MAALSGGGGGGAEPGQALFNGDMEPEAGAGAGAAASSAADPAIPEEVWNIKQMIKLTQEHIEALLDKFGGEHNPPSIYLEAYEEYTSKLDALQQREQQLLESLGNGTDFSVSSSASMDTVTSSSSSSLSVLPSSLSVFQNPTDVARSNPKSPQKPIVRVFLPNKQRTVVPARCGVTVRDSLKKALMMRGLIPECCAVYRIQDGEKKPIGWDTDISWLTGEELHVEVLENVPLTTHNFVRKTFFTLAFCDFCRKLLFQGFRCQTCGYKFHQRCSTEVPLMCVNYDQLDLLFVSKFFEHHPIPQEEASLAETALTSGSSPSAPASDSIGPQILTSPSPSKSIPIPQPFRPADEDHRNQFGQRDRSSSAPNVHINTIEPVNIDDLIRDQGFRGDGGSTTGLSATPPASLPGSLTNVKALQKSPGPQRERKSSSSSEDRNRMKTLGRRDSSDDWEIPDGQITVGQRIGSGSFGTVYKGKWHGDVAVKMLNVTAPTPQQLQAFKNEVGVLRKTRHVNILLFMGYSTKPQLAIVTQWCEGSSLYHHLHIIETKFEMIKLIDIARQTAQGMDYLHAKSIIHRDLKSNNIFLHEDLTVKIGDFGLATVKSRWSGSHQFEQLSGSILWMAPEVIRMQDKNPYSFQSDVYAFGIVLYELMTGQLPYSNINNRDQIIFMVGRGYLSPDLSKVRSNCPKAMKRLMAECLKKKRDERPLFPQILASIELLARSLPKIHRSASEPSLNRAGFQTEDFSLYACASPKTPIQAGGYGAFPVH
# T1 sequence (P07333 20-972): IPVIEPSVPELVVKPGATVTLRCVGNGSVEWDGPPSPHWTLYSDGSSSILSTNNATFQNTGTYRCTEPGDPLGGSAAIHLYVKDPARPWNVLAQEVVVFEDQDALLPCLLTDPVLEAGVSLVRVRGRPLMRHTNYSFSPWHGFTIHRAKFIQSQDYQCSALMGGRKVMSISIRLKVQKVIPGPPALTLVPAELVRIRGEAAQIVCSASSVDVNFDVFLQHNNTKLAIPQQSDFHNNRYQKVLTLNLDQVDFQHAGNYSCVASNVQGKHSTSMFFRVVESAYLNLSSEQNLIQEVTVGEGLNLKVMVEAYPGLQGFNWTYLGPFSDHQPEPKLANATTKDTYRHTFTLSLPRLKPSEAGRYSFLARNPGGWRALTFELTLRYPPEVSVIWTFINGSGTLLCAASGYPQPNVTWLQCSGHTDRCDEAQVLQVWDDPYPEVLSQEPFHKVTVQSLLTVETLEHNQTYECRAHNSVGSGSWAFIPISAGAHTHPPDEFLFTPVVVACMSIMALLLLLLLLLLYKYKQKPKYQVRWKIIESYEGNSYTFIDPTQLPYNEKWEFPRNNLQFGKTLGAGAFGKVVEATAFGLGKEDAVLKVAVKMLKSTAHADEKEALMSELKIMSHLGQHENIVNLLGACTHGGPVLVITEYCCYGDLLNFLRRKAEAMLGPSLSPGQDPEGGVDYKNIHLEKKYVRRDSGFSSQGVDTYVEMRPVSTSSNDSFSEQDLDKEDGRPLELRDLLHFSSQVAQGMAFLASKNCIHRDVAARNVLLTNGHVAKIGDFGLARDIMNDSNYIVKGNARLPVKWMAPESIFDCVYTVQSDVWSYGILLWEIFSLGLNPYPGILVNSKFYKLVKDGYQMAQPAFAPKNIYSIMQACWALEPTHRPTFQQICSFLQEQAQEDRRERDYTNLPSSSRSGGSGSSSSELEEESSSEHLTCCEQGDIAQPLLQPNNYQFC
IC50 (Fms) [µM],IC50 (Kit) [µM],IC50 (B-Raf V600E) [µM],IC50 (Flt1) [µM],IC50 (FGFR1) [µM],IC50 (B-Raf) [µM],Structure (SMILES)
≤ 10,≤ 10,≤ 10,≤ 10,≤ 10,,CC(C)(C)OC(=O)N(Cc1ccc(Cl)cc1)c1ccc(C(=O)c2c[nH]c3ncccc23)cn1 [Compound P-1194]
≤ 10,≤ 10,≤ 10,≤ 10,,≤ 10,"CCCS(=O)(=O)Nc1ccc(F)c(C(=O)c2c[nH]c3ncc(C(=O)O)cc23)c1F [Compound P-1559, 3-[2,6-difluoro-3-(propane-1-sulfonylamino)-benzoyl]-1H-pyrrolo[2,3-b]pyridine-5-carboxylic acid]"
≤ 10,≤ 10,≤ 10,≤ 10,≤ 10,,"CS(=O)(=O)Nc1cccc(-c2cnc3[nH]cc(C(=O)c4ccc5c(c4)OC(F)(F)O5)c3c2)c1 [Compound P-1564, N-{3-[3-(2,2-Difluoro-benzo[1,3]dioxole-5-carbonyl)-1H-pyrrolo[2,3-b]pyridin-5-yl]-phenyl}-methanesulfonamide]"
≤ 10,≤ 10,,≤ 10,≤ 10,,COc1cc(OC)cc(C(O)c2c[nH]c3ncc(Br)cc23)c1 (centres unmarked) [Compound P-1460]
,≤ 10,≤ 10,≤ 10,≤ 10,≤ 10,"COc1cnc2[nH]cc(C(=O)c3c(F)ccc(NS(=O)(=O)c4ccc(F)cc4)c3F)c2c1 [Compound P-1582, N-[2,4-Difluoro-3-(5-methoxy-1H-pyrrolo[2,3-b]pyridine-3-carbonyl)-phenyl]-4-fluoro-benzenesulfonamide]"
≤ 10,≤ 10,≤ 10,≤ 10,≤ 10,,"CC(=O)Nc1cccc(-c2cnc3[nH]cc(C(=O)c4cc(Cl)cc(Cl)c4)c3c2)c1 [Compound P-1423, N-{3-[3-(3,5-Dichloro-benzoyl)-1H-pyrrolo[2,3-b]pyridin-5-yl]-phenyl}-acetamide]"
,≤ 10,≤ 10,≤ 10,≤ 10,≤ 10,"CS(=O)(=O)Nc1ccc(F)c(Cc2c[nH]c3ncc(-c4cccnc4)cc23)c1F [Compound P-1605, N-[2,4-Difluoro-3-(5-pyridin-3-yl-1H-pyrrolo[2,3-b]pyridin-3-ylmethyl)-phenyl]-methanesulfonamide]"
≤ 10,,,≤ 10,≤ 10,≤ 10,COc1ccnc2[nH]cc(Cc3ccc(NCc4ccc(C(F)(F)F)cc4)nc3)c12 [Compound P-1110]
≤ 10,≤ 10,≤ 10,≤ 10,,,"CS(=O)(=O)Nc1cccc(-c2cnc3[nH]cc(C(=O)c4cccc(C(F)(F)F)c4)c3c2)c1 [Compound P-1425, N-{3-[3-(3-Trifluoromethyl-benzoyl)-1H-pyrrolo[2,3-b]pyridin-5-yl]-phenyl}-methanesulfonamide]"
≤ 10,≤ 10,,≤ 10,,≤ 10,"O=C(NCCN1CCOCC1)Nc1ccc(F)c(C(=O)c2c[nH]c3ncc(Cl)cc23)c1F [Compound P-1580, 1-[3-(5-Chloro-1H-pyrrolo[2,3-b]pyridine-3-carbonyl)-2,4-difluoro-phenyl]-3-(2-morpholin-4-yl-ethyl)-urea]"
≤ 10,≤ 10,,≤ 10,≤ 10,,COc1cc(OC)cc(C(OC)c2c[nH]c3ncc(Br)cc23)c1 (centres unmarked) [Compound P-1461]
≤ 10,,≤ 10,≤ 10,≤ 10,≤ 10,Cc1c(NS(=O)(=O)N(C)C)cccc1C(=O)c1c[nH]c2ncc(Br)cc12 [Compound P-1609]
≤ 10,≤ 10,,≤ 10,≤ 10,,"CS(=O)(=O)Nc1cccc(-c2cnc3[nH]cc(C(=O)c4cccc(OC(F)(F)F)c4)c3c2)c1 [Compound P-1428, N-{3-[3-(3-Trifluoromethoxy-benzoyl)-1H-pyrrolo[2,3-b]pyridin-5-yl]-phenyl}-methanesulfonamide]"
≤ 10,,≤ 10,≤ 10,≤ 10,≤ 10,CCCS(=O)(=O)Nc1cccc(C(=O)c2c[nH]c3ncc(Br)cc23)c1C [Compound P-1608]

# Further lines, the compound ahead of its results:
Structure (SMILES),IC50 (Fms) [µM],IC50 (Kit) [µM],IC50 (B-Raf V600E) [µM],IC50 (Flt1) [µM],IC50 (FGFR1) [µM],IC50 (B-Raf) [µM]
COC(=O)/C=C/c1cccc(-c2cnc3[nH]cc(C(=O)c4cccc(NS(C)(=O)=O)c4)c3c2)c1 [Compound P-1404],≤ 10,≤ 10,,≤ 10,≤ 10,
"O=S(=O)(Nc1ccc(F)c(Cc2c[nH]c3ncc(Cl)cc23)c1F)c1cccc(C(F)(F)F)c1 [Compound P-1600, N-[2,4-Difluoro-3-(5-chloro-1H-pyrrolo[2,3-b]pyridin-3-ylmethyl)-phenyl]-3-trifluoromethyl-benzenesulfonamide]",,,≤ 10,≤ 10,,≤ 10
"COc1cnc2[nH]cc(C(=O)c3c(F)ccc(NS(=O)(=O)c4cccc(C(F)(F)F)c4)c3F)c2c1 [Compound P-1598, N-[2,4-Difluoro-3-(5-methoxy-1H-pyrrolo[2,3-b]pyridine-3-carbonyl)-phenyl]-3-trifluoromethyl-benzenesulfonamide]",≤ 10,≤ 10,≤ 10,≤ 10,,≤ 10
"CCCCN(C)C(=O)Nc1ccc(F)c(C(=O)c2c[nH]c3ncc(Cl)cc23)c1F [Compound P-1612, 1-Butyl-3-[3-(5-chloro-1H-pyrrolo[2,3-b]pyridine-3-carbonyl)-2,4-difluoro-phenyl]-1-methyl-urea]",≤ 10,,≤ 10,≤ 10,,≤ 10
"CCCCNC(=O)Nc1ccc(F)c(C(=O)c2c[nH]c3ncc(Cl)cc23)c1F [Compound P-1586, 1-Butyl-3-[3-(5-chloro-1H-pyrrolo[2,3-b]pyridine-3-carbonyl)-2,4-difluoro-phenyl]-urea]",≤ 10,,≤ 10,≤ 10,,≤ 10
"CS(=O)(=O)Nc1cccc(-c2cnc3[nH]cc(C(=O)c4cc(F)cc(C(F)(F)F)c4)c3c2)c1 [Compound P-1427, N-{3-[3-(3-Fluoro-5-trifluoromethyl-benzoyl)-1H-pyrrolo[2,3-b]pyridin-5-yl]-phenyl}-methanesulfonamide]",≤ 10,≤ 10,,≤ 10,,
Nc1cccc(C(=O)c2c[nH]c3ncc(-c4cccc(OC(F)(F)F)c4)cc23)c1 [Compound P-1593],,≤ 10,,≤ 10,≤ 10,≤ 10
"Oc1ccc(Nc2c[nH]c3ncccc23)c(F)c1 [Compound P-1499, 3-Fluoro-4-(1H-pyrrolo[2,3-b]pyridin-3-ylamino)-phenol]",≤ 10,≤ 10,,≤ 10,,
"c1ccc(Cc2cccc(Nc3c[nH]c4ncccc34)c2)cc1 [Compound P-1497, (3-Benzyl-phenyl)-(1H-pyrrolo[2,3-b]pyridin-3-yl)-amine]",≤ 10,≤ 10,,≤ 10,,
"COc1cc(Cc2c[nH]c3ncc(Br)cc23)cc(OC)c1 [Compound P-1464, 5-Bromo-3-(3,5-dimethoxy-benzyl)-1H-pyrrolo[2,3-b]pyridine]",≤ 10,≤ 10,,≤ 10,≤ 10,
"OC(c1c(Cl)ccc(OCC(F)(F)F)c1F)c1c[nH]c2ncc(Br)cc12 (centres unmarked) [Compound P-1393, (5-Bromo-1H-pyrrolo[2,3-b]pyridin-3-yl)-[6-chloro-2-fluoro-3-(2,2,2-trifluoro-ethoxy)-phenyl]-methanol]",≤ 10,≤ 10,,≤ 10,≤ 10,
"COc1cnc2[nH]cc(Cc3c(F)ccc(NS(=O)(=O)c4cccc(C(F)(F)F)c4)c3F)c2c1 [Compound P-1590, N-[2,4-Difluoro-3-(5-methoxy-1H-pyrrolo[2,3-b]pyridin-3-ylmethyl)-phenyl]-3-trifluoromethyl-benzenesulfonamide]",,≤ 10,≤ 10,≤ 10,,≤ 10
"COc1cc(OC)cc(C(=O)c2c[nH]c3ncc(Br)cc23)c1 [Compound P-1463, (5-Bromo-1H-pyrrolo[2,3-b]pyridin-3-yl)-(3,5-dimethoxy-phenyl)-methanone]",≤ 10,≤ 10,,≤ 10,≤ 10,
